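Compound exposure: 48 hours, 5 concentrations, 96-well plates. GI50 = concentration required for 50% inhibition of growth. The concentration for full growth arrest is given as TGI.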
What was measured:
Test in all cases: growth of human tumour cells (NCI), 48 h
CAKI-1 renal = test system: CAKI-1 renal
SF-295 CNS = test system: SF-295 CNS
SF-268 CNS = test system: SF-268 CNS
NCI-H23 lung = test system: NCI-H23 lung
RPMI-8226 leukemia = test system: RPMI-8226 leukemia
OVCAR-4 ovarian = test system: OVCAR-4 ovarian
MALME-3M melanoma = test system: MALME-3M melanoma
IGROV1 ovarian = test system: IGROV1 ovarian
PC-3 prostate = test system: PC-3 prostate
HCT-116 colon = test system: HCT-116 colon
SK-MEL-28 melanoma = test system: SK-MEL-28 melanoma
NCI-H522 lung = test system: NCI-H522 lung
SN12C renal = test system: SN12C renal
786-0 renal = test system: 786-0 renal
RXF 393 renal = test system: RXF 393 renal
HS 578T breast = test system: HS 578T breast
MCF7 breast = test system: MCF7 breast
U251 CNS = test system: U251 CNS
COLO 205 colon = test system: COLO 205 colon
SNB-19 CNS = test system: SNB-19 CNS
HL-60(TB) leukemia = test system: HL-60(TB) leukemia
A549 NSCLC = test system: A549 NSCLC
OVCAR-8 ovarian = test system: OVCAR-8 ovarian
MOLT-4 leukemia = test system: MOLT-4 leukemia
ACHN renal = test system: ACHN renal
TK-10 renal = test system: TK-10 renal
MDA-MB-231 breast = test system: MDA-MB-231 breast
BT-549 breast = test system: BT-549 breast
CCRF-CEM leukemia = test system: CCRF-CEM leukemia
HT29 colon = test system: HT29 colon
M14 melanoma = test system: M14 melanoma
HCT-15 colon = test system: HCT-15 colon
NCI/ADR-RES ovarian = test system: NCI/ADR-RES ovarian
SNB-75 CNS = test system: SNB-75 CNS
DU-145 prostate = test system: DU-145 prostate
OVCAR-3 ovarian = test system: OVCAR-3 ovarian
SR leukemia = test system: SR leukemia
A498 renal = test system: A498 renal
SW-620 colon = test system: SW-620 colon
SK-MEL-2 melanoma = test system: SK-MEL-2 melanoma
OVCAR-5 ovarian = test system: OVCAR-5 ovarian
UO-31 renal = test system: UO-31 renal
EKVX NSCLC = test system: EKVX NSCLC
LOX IMVI melanoma = test system: LOX IMVI melanoma
HCC-2998 colon = test system: HCC-2998 colon
SF-539 CNS = test system: SF-539 CNS
KM12 colon = test system: KM12 colon
HOP-62 NSCLC = test system: HOP-62 NSCLC
NCI-H226 lung = test system: NCI-H226 lung
UACC-257 melanoma = test system: UACC-257 melanoma
SK-MEL-5 melanoma = test system: SK-MEL-5 melanoma
UACC-62 melanoma = test system: UACC-62 melanoma
MDA-MB-435 = test system: MDA-MB-435
SK-OV-3 ovarian = test system: SK-OV-3 ovarian
NCI-H460 lung = test system: NCI-H460 lung
K-562 leukemia = test system: K-562 leukemia

O=C(c1ccco1)c1nc2ccc(Cl)cc2[n+]([O-])c1C(F)(F)F
GI50 (CAKI-1 renal): 95.6 µM | TGI (CAKI-1 renal): > 100 µM | GI50 (SF-295 CNS): > 100 µM | TGI (SF-295 CNS): > 100 µM | GI50 (SF-268 CNS): 50.1 µM | TGI (SF-268 CNS): > 100 µM | GI50 (NCI-H23 lung): > 100 µM | TGI (NCI-H23 lung): > 100 µM | GI50 (RPMI-8226 leukemia): 31.1 µM | TGI (RPMI-8226 leukemia): > 100 µM | GI50 (OVCAR-4 ovarian): > 100 µM | TGI (OVCAR-4 ovarian): > 100 µM | GI50 (MALME-3M melanoma): > 100 µM | TGI (MALME-3M melanoma): > 100 µM | GI50 (IGROV1 ovarian): > 100 µM | TGI (IGROV1 ovarian): > 100 µM | GI50 (PC-3 prostate): 37.1 µM | TGI (PC-3 prostate): > 100 µM | GI50 (HCT-116 colon): > 100 µM | TGI (HCT-116 colon): > 100 µM | GI50 (SK-MEL-28 melanoma): > 100 µM | TGI (SK-MEL-28 melanoma): > 100 µM | GI50 (NCI-H522 lung): > 100 µM | TGI (NCI-H522 lung): > 100 µM | GI50 (SN12C renal): > 100 µM | TGI (SN12C renal): > 100 µM | GI50 (786-0 renal): > 100 µM | TGI (786-0 renal): > 100 µM | GI50 (RXF 393 renal): 27.4 µM | TGI (RXF 393 renal): 62 µM | GI50 (HS 578T breast): > 100 µM | TGI (HS 578T breast): > 100 µM | GI50 (MCF7 breast): 30.4 µM | TGI (MCF7 breast): > 100 µM | GI50 (U251 CNS): 69.8 µM | TGI (U251 CNS): > 100 µM | GI50 (COLO 205 colon): > 100 µM | TGI (COLO 205 colon): > 100 µM | GI50 (SNB-19 CNS): 72.6 µM | TGI (SNB-19 CNS): > 100 µM | GI50 (HL-60(TB) leukemia): > 100 µM | TGI (HL-60(TB) leukemia): > 100 µM | GI50 (A549 NSCLC): > 100 µM | TGI (A549 NSCLC): > 100 µM | GI50 (OVCAR-8 ovarian): 64.9 µM | TGI (OVCAR-8 ovarian): > 100 µM | GI50 (MOLT-4 leukemia): > 100 µM | TGI (MOLT-4 leukemia): > 100 µM | GI50 (ACHN renal): > 100 µM | TGI (ACHN renal): > 100 µM | GI50 (TK-10 renal): 62.7 µM | TGI (TK-10 renal): > 100 µM | GI50 (MDA-MB-231 breast): 59.1 µM | TGI (MDA-MB-231 breast): > 100 µM | GI50 (BT-549 breast): > 100 µM | TGI (BT-549 breast): > 100 µM | GI50 (CCRF-CEM leukemia): 39.4 µM | TGI (CCRF-CEM leukemia): > 100 µM | GI50 (HT29 colon): > 100 µM | TGI (HT29 colon): > 100 µM | GI50 (M14 melanoma): > 100 µM | TGI (M14 melanoma): > 100 µM | GI50 (HCT-15 colon): > 100 µM | TGI (HCT-15 colon): > 100 µM | GI50 (NCI/ADR-RES ovarian): > 100 µM | TGI (NCI/ADR-RES ovarian): > 100 µM | GI50 (SNB-75 CNS): 52.8 µM | TGI (SNB-75 CNS): > 100 µM | GI50 (DU-145 prostate): > 100 µM | TGI (DU-145 prostate): > 100 µM | GI50 (OVCAR-3 ovarian): > 100 µM | TGI (OVCAR-3 ovarian): > 100 µM | GI50 (SR leukemia): 66.3 µM | TGI (SR leukemia): > 100 µM | GI50 (A498 renal): > 100 µM | TGI (A498 renal): > 100 µM | GI50 (SW-620 colon): > 100 µM | TGI (SW-620 colon): > 100 µM | GI50 (SK-MEL-2 melanoma): > 100 µM | TGI (SK-MEL-2 melanoma): > 100 µM | GI50 (OVCAR-5 ovarian): > 100 µM | TGI (OVCAR-5 ovarian): > 100 µM | GI50 (UO-31 renal): > 100 µM | TGI (UO-31 renal): > 100 µM | GI50 (EKVX NSCLC): 96.2 µM | TGI (EKVX NSCLC): > 100 µM | GI50 (LOX IMVI melanoma): > 100 µM | TGI (LOX IMVI melanoma): > 100 µM | GI50 (HCC-2998 colon): 88.4 µM | TGI (HCC-2998 colon): > 100 µM | GI50 (SF-539 CNS): > 100 µM | TGI (SF-539 CNS): > 100 µM | GI50 (KM12 colon): > 100 µM | TGI (KM12 colon): > 100 µM | GI50 (HOP-62 NSCLC): 91.3 µM | TGI (HOP-62 NSCLC): > 100 µM | GI50 (NCI-H226 lung): > 100 µM | TGI (NCI-H226 lung): > 100 µM | GI50 (UACC-257 melanoma): > 100 µM | TGI (UACC-257 melanoma): > 100 µM | GI50 (SK-MEL-5 melanoma): 90.3 µM | TGI (SK-MEL-5 melanoma): > 100 µM | GI50 (UACC-62 melanoma): > 100 µM | TGI (UACC-62 melanoma): > 100 µM | GI50 (MDA-MB-435): > 100 µM | TGI (MDA-MB-435): > 100 µM | GI50 (SK-OV-3 ovarian): > 100 µM | TGI (SK-OV-3 ovarian): > 100 µM | GI50 (NCI-H460 lung): 91.4 µM | TGI (NCI-H460 lung): > 100 µM | GI50 (K-562 leukemia): > 100 µM | TGI (K-562 leukemia): > 100 µM

COC1=CC(=O)N(C(=O)C2CSC(C(CO)NC(=O)c3csc(/C=N/O)n3)=N2)C1 (stereo unspecified)
TGI (CAKI-1 renal): > 100 µM | TGI (SF-295 CNS): > 100 µM | TGI (SF-268 CNS): > 100 µM | TGI (NCI-H23 lung): > 100 µM | TGI (RPMI-8226 leukemia): > 100 µM | TGI (MALME-3M melanoma): > 100 µM | TGI (IGROV1 ovarian): > 100 µM | TGI (PC-3 prostate): > 100 µM | TGI (HCT-116 colon): > 100 µM | TGI (SK-MEL-28 melanoma): > 100 µM | TGI (SN12C renal): > 100 µM | TGI (786-0 renal): > 100 µM | TGI (HS 578T breast): > 100 µM | TGI (MCF7 breast): > 100 µM | TGI (COLO 205 colon): > 100 µM | TGI (SNB-19 CNS): > 100 µM | TGI (HL-60(TB) leukemia): > 100 µM | TGI (OVCAR-8 ovarian): > 100 µM | TGI (MOLT-4 leukemia): > 100 µM | TGI (ACHN renal): > 100 µM | TGI (TK-10 renal): > 100 µM | TGI (MDA-MB-231 breast): > 100 µM | TGI (BT-549 breast): > 100 µM | TGI (CCRF-CEM leukemia): > 100 µM | TGI (HT29 colon): > 100 µM | TGI (M14 melanoma): > 100 µM | TGI (HCT-15 colon): > 100 µM | TGI (NCI/ADR-RES ovarian): > 100 µM | TGI (SNB-75 CNS): 91 µM | TGI (DU-145 prostate): > 100 µM | TGI (OVCAR-3 ovarian): > 100 µM | TGI (SR leukemia): > 100 µM | TGI (A498 renal): > 100 µM | TGI (SW-620 colon): > 100 µM | TGI (SK-MEL-2 melanoma): > 100 µM | TGI (OVCAR-5 ovarian): > 100 µM | TGI (EKVX NSCLC): > 100 µM | TGI (LOX IMVI melanoma): > 100 µM | TGI (SF-539 CNS): > 100 µM | TGI (KM12 colon): > 100 µM | TGI (HOP-62 NSCLC): > 100 µM | TGI (NCI-H226 lung): > 100 µM | TGI (UACC-257 melanoma): > 100 µM | TGI (SK-MEL-5 melanoma): > 100 µM | TGI (UACC-62 melanoma): > 100 µM | TGI (MDA-MB-435): > 100 µM | TGI (SK-OV-3 ovarian): > 100 µM | TGI (NCI-H460 lung): > 100 µM | TGI (K-562 leukemia): > 100 µM

From PubChem BioAssay (NCI)
